Measured values: patent US9242945B2, “Substituted 2-benzylidene-2H-benzo[b][1,4]thiazin-3(4H)-ones, derivatives thereof, and therapeutic uses thereof” (TEMPLE UNIVERSITY—OF THE COMMONWEALTH SYSTEM OF HIGHER …, priority 2011, dated 2016)
Where two headings read alike, the source gives them in different places.

What was measured:
DU145 (prostate cancer) = assay: Cytotoxicity assay, DU145 tumor cells; type: cell-based; conditions: Homo sapiens, DU-145, 96 h treatment
Protocol: (§1) The effect of the compounds of the invention on tumor cells was determined by the assay described by Latham et al., Oncogene 12:827-837 (1996). Tumor cells K562 (chronic myelogenous leukemia; leukemia cell line +ve for Bcr-Abl) or DU145 (prostate cancer) were plated in 12-well dishes at a cell density of 2.5×10^4 cells well. The plated cells were treated 24 hours later with a compound of the invention dissolved in DMSO at multiple concentrations ranging from 0.01 μM to 100 μM. The plates were examined 96 hours later under an inverted microscope, Olympus CK-2 using a 10× objective, and compound activity was noted by physical observation. When necessary, the total number of viable cells was determined by trypsinizing the wells and counting the number of viable cells, as determined by trypan blue exclusion, using a hemacytometer. Where “Lower” and “Upper” value are provided in Table 5, the IC50 was determined to be within that range. When only a “Lower” value is provided and no “Upper” value is listed, the IC50 was that value, or less than or greater than that value, as set forth in the Table.
(§2) The cytotoxicity of Compound 42, (Z)-6-((2,6-dichlorobenzyl)sulfonyl)-2-(4-hydroxy-3-nitrobenzylidene)-2H-benzo[b][1,4]thiazin-3(4H)-one, was determined according the assay method of Example 7 on the prostate (androgen dependent or independent), breast and pancreatic cancer cell lines listed in Table 6A, below, and the additional cell lines listed in Table 6B, below. The human mesenchymal stem cell line HMSC.hTERT and normal human fibroblast cell line HFL was included in the test.

[1] = system: K562 (chronic myelogenous leukemia; leukemia cell line +ve for Bcr-Abl); assay: Cytotoxicity assay, K562 tumor cells; type: cell-based; conditions: Homo sapiens, K562, 96 h treatment
Protocol: as §1, §2

[2] = lower limit of the IC50 range, or the IC50 itself (or its bound) where no Upper value is listed, read-out: DU145 IC50 (μm) Lower (μm)
[3] = upper limit of the IC50 range, read-out: DU145 IC50 (μm) Upper (μm)
[4] = lower limit of the IC50 range, or the IC50 itself (or its bound) where no Upper value is listed, read-out: K562 IC50 (μm) Lower (μm)
[5] = upper limit of the IC50 range, read-out: K562 IC50 (μm) Upper (μm)

Compound	IC50 (DU145 (prostate cancer); [2])	IC50 (DU145 (prostate cancer); [3])	IC50 [1, 4]	IC50 [1, 5]
CC(=O)Oc1ccc(/C=C2\Sc3ccc(Cl)cc3NC2=O)cc1[N+](=O)[O-] [Compound 1, (Z)-4-((6-chloro-3-oxo-3,4-dihydro-2H-benzo[b][1,4]thiazin-2-ylidene)methyl)-2-nitrophenyl acetate]	≥ 1000 nM	≤ 10000 nM	≥ 10000 nM	≤ 25000 nM
COc1ccc2c(c1)S/C(=C\c1ccc(OC(C)=O)c([N+](=O)[O-])c1)C(=O)N2 [Compound 2, (Z)-4-((7-methoxy-3-oxo-3,4-dihydro-2H-benzo[b][1,4]thiazin-2-ylidene)methyl)-2-nitrophenyl acetate]	≥ 1000 nM	≤ 10000 nM	≥ 1000 nM	≤ 10000 nM
CC(=O)Oc1ccc(/C=C2\Sc3cc(Br)ccc3NC2=O)cc1[N+](=O)[O-] [Compound 3, (Z)-4-((7-bromo-3-oxo-3,4-dihydro-2H-benzo[b][1,4]thiazin-2-ylidene)methyl)-2-nitrophenyl acetate]	≥ 10000 nM	≤ 25000 nM	≥ 1000 nM	≤ 10000 nM
CC(=O)Oc1ccc(/C=C2\Sc3cc(C)ccc3NC2=O)cc1[N+](=O)[O-] [Compound 4, (Z)-4-((7-methyl-3-oxo-3,4-dihydro-2H-benzo[b][1,4]thiazin-2-ylidene)methyl)-2-nitrophenyl acetate]	≥ 1000 nM	≤ 10000 nM	≥ 1000 nM	≤ 10000 nM
CC(=O)Oc1ccc(/C=C2\Sc3cc(C(=O)O)ccc3NC2=O)cc1[N+](=O)[O-] [Compound 5, (Z)-2-(4-acetoxy-3-nitrobenzylidene)-3-oxo-3,4-dihydro-2H-benzo[b][1,4]thiazine-7-carboxylic acid]	> 100000 nM	–	≥ 50000 nM	≤ 100000 nM
CC(=O)Oc1ccc(/C=C2\Sc3cc(F)ccc3NC2=O)cc1[N+](=O)[O-] [Compound 6, (Z)-4-((7-fluoro-3-oxo-3,4-dihydro-2H-benzo[b][1,4]thiazin-2-ylidene)methyl)-2-nitrophenyl acetate]	–	≤ 1000 nM	≥ 1000 nM	≤ 10000 nM
CC(=O)Oc1ccc(/C=C2\Sc3ccc(F)cc3NC2=O)cc1[N+](=O)[O-] [Compound 7, (Z)-4-((6-fluoro-3-oxo-3,4-dihydro-2H-benzo[b][1,4]thiazin-2-ylidene)methyl)-2-nitrophenyl acetate]	≥ 1000 nM	≤ 10000 nM	≥ 1000 nM	≤ 10000 nM
CC(=O)Oc1ccc(/C=C2\Sc3ccc(S(=O)(=O)Cc4c(Cl)cccc4Cl)cc3NC2=O)cc1[N+](=O)[O-] [Compound 8, (Z)-4-((6-((2,6-dichlorobenzyl)sulfonyl)-3-oxo-3,4-dihydro-2H-benzo[b][1,4]thiazin-2-ylidene)methyl)-2-nitrophenyl acetate]	100 nM	–	75 nM	–
CC(=O)Oc1ccc(/C=C2\Sc3ccc(S(=O)(=O)Cc4c(Cl)cccc4Cl)cc3NC2=O)cc1 [Compound 9, (Z)-4-((6-((2,6-dichlorobenzyl)sulfonyl)-3-oxo-3,4-dihydro-2H-benzo[b][1,4]thiazin-2-ylidene)methyl)phenyl acetate]	< 1000 nM	–	< 1000 nM	–
O=C1Nc2cc(S(=O)(=O)Cc3c(Cl)cccc3Cl)ccc2S/C1=C\c1ccccc1 [Compound 10, (Z)-2-benzylidene-6-((2,6-dichlorobenzyl)sulfonyl)-2H-benzo[b][1,4]thiazin-3(4H)-one]	< 1000 nM	–	≥ 1000 nM	≤ 10000 nM
COc1ccc(/C=C2\Sc3ccc(S(=O)(=O)Cc4c(Cl)cccc4Cl)cc3NC2=O)cc1[N+](=O)[O-] [Compound 11, (Z)-6-((2,6-dichlorobenzyl)sulfonyl)-2-(4-methoxy-3-nitrobenzylidene)-2H-benzo[b][1,4]thiazin-3(4H)-one]	≥ 250 nM	≤ 500 nM	≥ 250 nM	≤ 500 nM
COc1ccc(/C=C2\Sc3ccc(S(=O)(=O)Cc4c(Cl)cccc4Cl)cc3NC2=O)cc1N [Compound 12, (Z)-2-(3-amino-4-methoxybenzylidene)-6-((2,6-dichlorobenzyl)sulfonyl)-2H-benzo[b][1,4]thiazin-3(4H)-one]	≥ 250 nM	≤ 500 nM	≥ 100 nM	≤ 250 nM
CN1CCN(c2ccc(/C=C3\Sc4ccc(S(=O)(=O)Cc5c(Cl)cccc5Cl)cc4NC3=O)cc2)CC1 [Compound 13, (Z)-6-((2,6-dichlorobenzyl)sulfonyl)-2-(4-(4-methylpiperazin-1-yl)benzylidene)-2H-benzo[b][1,4]thiazin-3(4H)-one]	≥ 1000 nM	≤ 10000 nM	≥ 500 nM	≤ 1000 nM
O=C1Nc2cc(S(=O)(=O)Cc3c(Cl)cccc3Cl)ccc2S/C1=C\c1ccc([N+](=O)[O-])cc1 [Compound 14, (Z)-6-((2,6-dichlorobenzyl)sulfonyl)-2-(4-nitrobenzylidene)-2H-benzo[b][1,4]thiazin-3(4H)-one]	≥ 1000 nM	≤ 10000 nM	≥ 1000 nM	≤ 10000 nM
Nc1ccc(/C=C2\Sc3ccc(S(=O)(=O)Cc4c(Cl)cccc4Cl)cc3NC2=O)cc1 [Compound 15, (Z)-2-(4-aminobenzylidene)-6-((2,6-dichlorobenzyl)sulfonyl)-2H-benzo[b][1,4]thiazin-3(4H)-one]	40 nM	–	30 nM	–
O=C1Nc2cc(S(=O)(=O)Cc3c(Cl)cccc3Cl)ccc2S/C1=C\c1ccc(F)cc1 [Compound 16, (Z)-6-((2,6-dichlorobenzyl)sulfonyl)-2-(4-fluorobenzylidene)-2H-benzo[b][1,4]thiazin-3(4H)-one]	≥ 1000 nM	≤ 10000 nM	≥ 1000 nM	≤ 10000 nM
O=C1Nc2cc(S(=O)(=O)Cc3c(Cl)cccc3Cl)ccc2S/C1=C\c1ccc(Cl)cc1 [Compound 17, (Z)-2-(4-chlorobenzylidene)-6-((2,6-dichlorobenzyl)sulfonyl)-2H-benzo[b][1,4]thiazin-3(4H)-one]	≥ 1000 nM	≤ 10000 nM	≥ 1000 nM	≤ 10000 nM
O=C1Nc2cc(S(=O)(=O)Cc3c(Cl)cccc3Cl)ccc2S/C1=C\c1ccc(Br)cc1 [Compound 18, (Z)-2-(4-bromobenzylidene)-6-((2,6-dichlorobenzyl)sulfonyl)-2H-benzo[b][1,4]thiazin-3(4H)-one]	≥ 1000 nM	≤ 10000 nM	≥ 1000 nM	≤ 10000 nM
O=C1Nc2cc(S(=O)(=O)Cc3c(Cl)cccc3Cl)ccc2S/C1=C\c1ccc(Cl)cc1Cl [Compound 22, (Z)-6-((2,6-dichlorobenzyl)sulfonyl)-2-(2,4-dichlorobenzylidene)-2H-benzo[b][1,4]thiazin-3(4H)-one]	≥ 1000 nM	≤ 10000 nM	≥ 1000 nM	≤ 10000 nM
CC(=O)n1cc(/C=C2\Sc3ccc(S(=O)(=O)Cc4c(Cl)cccc4Cl)cc3NC2=O)c2ccccc21 [Compound 26, (Z)-2-((1-acetyl-1H-indol-3-yl)methylene)-6-((2,6-dichlorobenzyl)sulfonyl)-2H-benzo[b][1,4]thiazin-3(4H)-one]	≥ 500 nM	≤ 1000 nM	≥ 500 nM	≤ 1000 nM
O=C1Nc2cc(S(=O)(=O)Cc3c(Cl)cccc3Cl)ccc2S/C1=C\c1ccc(Cl)c([N+](=O)[O-])c1 [Compound 29, (Z)-2-(4-chloro-3-nitrobenzylidene)-6-((2,6-dichlorobenzyl)sulfonyl)-2H-benzo[b][1,4]thiazin-3(4H)-one]	≥ 500 nM	≤ 1000 nM	≥ 1000 nM	≤ 10000 nM
O=C1Nc2cc(S(=O)(=O)Cc3c(Cl)cccc3Cl)ccc2S/C1=C\c1ccc(F)cc1F [Compound 30, (Z)-6-((2,6-dichlorobenzyl)sulfonyl)-2-(2,4-difluorobenzylidene)-2H-benzo[b][1,4]thiazin-3(4H)-one]	≥ 1000 nM	≤ 10000 nM	≥ 1000 nM	≤ 10000 nM
O=C1Nc2cc(S(=O)(=O)Cc3c(Cl)cccc3Cl)ccc2S/C1=C\c1c(F)cc(F)cc1F [Compound 31, (Z)-6-((2,6-dichlorobenzyl)sulfonyl)-2-(2,4,6-trifluorobenzylidene)-2H-benzo[b][1,4]thiazin-3(4H)-one]	≥ 1000 nM	≤ 10000 nM	≥ 1000 nM	≤ 10000 nM
COC(=O)c1ccc(/C=C2\Sc3ccc(S(=O)(=O)Cc4c(Cl)cccc4Cl)cc3NC2=O)cc1 [Compound 32, (Z)-methyl 4-((6-((2,6-dichlorobenzyl)sulfonyl)-3-oxo-3,4-dihydro-2H-benzo[b][1,4]thiazin-2-ylidene)methyl)benzoate]	≥ 500 nM	≤ 1000 nM	≥ 1000 nM	≤ 10000 nM
